Experimental findings from ChEMBL document CHEMBL4627277, “Catenulisporidins A and B, 16-membered macrolides of the hygrolidin family produced by the chemically underexplored actinobacterium Catenulispora species” (Bioorg Med Chem Lett, 2020) are described below.

SMILES strings stand for the structures. Calls of active or inactive are those of the source. No cut-off for these calls is given here.

Common to all, as to format: functional, cell-based
For assay [1], the system named is HeLa. Put plainly: Antiproliferative activity against human HeLa cells assessed as reduction in cell growth.
For assay [2], the system named is HeLa. Nature of the assay: Modulation of autophagy in human HeLa cells expressing mRFP-EGFP-LC3B assessed as induction of EGFP-LC3B puncta formation at 3 uM measured after 24 hrs by fluorescence microscopic analysis.
Assay [3] concerns HeLa. Nature of the assay: Modulation of autophagy in human HeLa cells expressing mRFP-EGFP-LC3B assessed as induction of EGFP-LC3B puncta formation at 0.3 uM measured after 24 hrs by fluorescence microscopic analysis.
Assay [4] relates to HeLa. Nature of the assay: Inhibition of autophagic flux in human HeLa cells expressing mRFP-EGFP-LC3B assessed as blockage of autophagosome-lysosome fusion by measuring accumulation of yellow puncta at 3 uM measured after 24 hrs by fluorescence microscopic analysis.
Assay [5] relates to HeLa. Put plainly: Modulation of autophagy in human HeLa cells assessed as accumulation of p62 measured after 24 hrs by western blot analysis.
For assay [6], the system named is HeLa. Nature of the assay: Induction of autophagy in human HeLa cells expressing mRFP-EGFP-LC3B assessed as accumulation of red and green fluorescence signals at 200 nM measured after 24 hrs by fluorescence microscopic analysis.
Assay [7] has as its system HeLa. Nature of the assay: Modulation of autophagy in human HeLa cells assessed as autophagosome maturation by measuring conversion of LC3B-I to LC3B-II measured after 24 hrs by western blot analysis.

`CO/C1=C\C(C)=C\[C@@H](C)[C@@H](O)[C@@H](C)C/C(C)=C/C=C/[C@H](OC)[C@@H]([C@@H](C)[C@@H](O)[C@H](C)[C@@]2(O)C[C@@H](O)[C@H](C)[C@@H](C(C)C)O2)OC1=O` [BAFILOMYCIN A1]: in the assay with HeLa [1], the IC50 is 13 µM. Also, the outcome in the assay with HeLa [2] and in the assay with HeLa [3] was Active. Besides, the inhibition result with HeLa [4] is “Active”. For the same compound, the Activity result with HeLa [5] was “Dose-dependent effect”.

On to `CCC(=O)N1CCN(c2ccc(-n3c(=O)ccc4cnc5ccc(-c6cnc7ccccc7c6)cc5c43)cc2C(F)(F)F)CC1`, for which the outcome in the assay on HeLa [6] was Active.

In the case of `CC[C@H]1O[C@@](O)([C@@H](C)[C@H](O)[C@H](C)[C@H]2OC(=O)/C(C)=C/C(C)=C/[C@@H](C)[C@H]3O[C@](C)(C[C@@H]3C)[C@@H](O)/C=C/[C@@H]2OC)C[C@@H](OC(=O)/C=C/C(=O)O)[C@@H]1C`, the half-inhibitory concentration (IC50) in the assay on HeLa [1] is more than 30 µM. Further, in the assay with HeLa [2], the outcome was Active. The inhibition entry in the assay with HeLa [4] was “Active”. For the same compound, the Activity result in the assay with HeLa [5] and in the assay on HeLa [7] was “Dose-dependent effect” in each case.

Regarding `CC[C@H]1O[C@@](O)([C@@H](C)[C@H](O)[C@H](C)[C@H]2OC(=O)/C(C)=C/C(C)=C/[C@@H](C)[C@@H](O)[C@@H](C)C[C@@](C)(O)[C@@H](O)/C=C/[C@@H]2OC)C[C@@H](OC(=O)/C=C/C(=O)O)[C@@H]1C`, the IC50 in the assay with HeLa [1] was more than 30 µM. Besides, the result with HeLa [2] was Active. Further, the inhibition entry in the assay on HeLa [4] was “Active”. In addition, the Activity result with HeLa [5] and in the assay on HeLa [7] was “Dose-dependent effect” throughout.

As to `CC[C@H]1O[C@@](O)([C@@H](C)[C@H](O)[C@H](C)[C@H]2OC(=O)/C(C)=C/C(C)=C/[C@@H](C)[C@@H](O)[C@@H](C)C/C(C)=C/C=C/[C@@H]2OC)C[C@@H](OC(=O)/C=C/C(=O)O)[C@@H]1C`, in the assay on HeLa [1], the IC50 came to 11.8 µM. In addition, the result in the assay on HeLa [2] and with HeLa [3] was Active. Besides, in the assay with HeLa [4], the inhibition result was “Active”. In addition, the Activity result in the assay on HeLa [5] and with HeLa [7] was “Dose-dependent effect” in each case.
